Results published in patent publication US20240247048A1 (EMORY UNIVERSITY, priority 2021, published 2024).

Key:
[1] = system: MT5, KPC-Luc, Panc02, BXPC3, Capan-02 PDAC cell lines; test: cell viability assay (MTT) of PDAC cell lines; format: cell-based, mouse and human; conditions: 0-5 uM, 72 hours; FIG. 13E, 24a
Protocol: (§1) (FIG. 24A) Percentage viability of murine (MT5, KPC.Luc, Panc02) and human (Capan02, BxPC3) PDAC cell lines cultured in the presence of different concentrations ranging from 0-5 μM of ANT008 for 72 hours is plotted. Confirmation of CRISPR-Cas9 KO of VIPR2 encoding VPAC2 receptor via (FIG. 24B) western blot; (FIG. 24C) RT-PCR using primers targeting exon 9-12 downstream of targeted site and (FIG. 24D) Sanger Sequencing showing the validation of in-del mutation in exon 2. In vitro MTT assay showing (FIG. 24E) Proliferation of WT and KO cells over 72 hours; (FIG. 24F) Percent viability of wild type (WT) and VPAC2 KO (KO) Panc02 cells treated with ANT008 and ANT308 at 3 μM for 72 hours. (FIG. 24G) Tumor growth curve of WT versus KO Panc02 cells in C57BL/6 mice following subcutaneous tumor implantation. Values represent median tumor volume±95% confidence interval. (FIG. 24H) Kaplan-Meier survival plots corresponding to results in FIG. 24G. Median survival time for WT is 21 days and 28 days for VPAC2 KO. Error bars represent mean and standard deviation. *p<0.05, **p<0.01.
(§2) Cell viability assay. […] Cell viability was assessed using cell proliferation kit I from Roche (Basel, Switzerland), following the manufacturer's instructions. […] This was followed by incubation with solubilization buffer overnight and reading the absorbance at 570 nm. […]

[2] = system: intraocular melanoma; test: liver metastases in intraocular melanoma mouse model; format: in vivo
[3] = system: wild type and VPAC2 KO Panc02 cells; test: MTT viability of wild type and VPAC2 KO Panc02 cells; format: cell-based, mouse; conditions: 3 uM for 72 hours; FIG. 24f
Protocol: as §1, §2

[4] = system: phospho-CREB downstream of VPAC1/2 receptor; test: phosphorylation of CREB in activated human T cells; format: cell-based; conditions: 6 h, 3 uM, compared with control scrambled peptide; FIG. 17e
Protocol: (FIG. 17A) Representative western blot and (FIG. 17B) quantified expression levels of VPAC1 and VPAC2; and (FIG. 17C) PD-1 and CTLA-4 in lysates of healthy human T cells expanded with plate bound human anti-CD3 antibodies for 0, 3, 6, 12, 24, 48 and 72 hours. Lower molecular weight band of 25kD shown for VPAC2-specific expression as confirmed from our VPAC2 KO model. Percentage of (FIG. 17D) CD69 expression at 24 h post activation (FIG. 17E) phosphorylation of CREB (phospho-CREB) downstream of VPAC1/2 receptor at 6 h and in CD4+ and CD8+ T cells normalized to levels in control with no peptide. PDAC patient peripheral blood T cells were expanded for 9 days with plate bound human anti-CD3 antibodies+/−ANT008 and the (FIG. 17F) percentage of Tregs was quantified using the (FIG. 17G) gating strategy shown. Percentage of PD1+, Tim-3+, Lag3+, PD1+Tim-3+, PD1+Lag3+ and PD1+Tim-3+Lag-3+(triple positive) in (FIG. 17H) CD4+ and (FIG. 17I) CD8+ subsets is shown. Statistical differences in FIGS. 17D and 17E were calculated via repeated measures ANOVA followed by Dunnett's post-test where each sample in the treatment group was compared to the matched sample in the control group (scrambled treated). Statistical differences in FIGS. 17F, 17H, and 17I were calculated via paired student T-test. Error bars show mean±SEM. […], **p<0.01 and ***p<0.001. […]

Sequence | viability and growth of PDAC cell lines in vitro [1] | growth of liver metastases ([2]; 3 weeks after tumor inoculation, N=6, FIG. 36) | size of intraocular melanoma ([2]; FIG. 38) | angiogenesis of liver metastases ([2]; N=10, FIG. 37) | hepatic metastases in 3 weeks ([2]; n=6, FIG. 34) | in vitro growth of VPAC2 knockout or wild-type Panc02 cells [3] | activation-induced phosphorylation of CREB [4]
KPRRPYTDNYTRLRKQMAVKKYLNLILN [ANT008] | did not affect viability of PDAC cell lines in vitro, except a transient effect in MT5 | – | – | – | – | – | –
KPRRPYTSDYTRLRKQMAVKKYLNLILN [ANT308] | – | suppressed growth | not affected | inhibited angiogenesis | decreased | did not inhibit | more potently inhibited
